pIC50: −log10 of the molar value.
Assays:
[1] = target: T1, NAD-dependent protein deacetylase sirtuin-1 (Homo sapiens, UniProt Q96EB6); assay: Inhibition of recombinant human GST or His6-tagged SIRT1 using H2N-HK-[Nepsilon-acetyl-lysine]-LM-COOH as substrate incubated for 10 mins in presence of beta-NAD+ by HPLC based assay
T1 sequence (Q96EB6 whole entry): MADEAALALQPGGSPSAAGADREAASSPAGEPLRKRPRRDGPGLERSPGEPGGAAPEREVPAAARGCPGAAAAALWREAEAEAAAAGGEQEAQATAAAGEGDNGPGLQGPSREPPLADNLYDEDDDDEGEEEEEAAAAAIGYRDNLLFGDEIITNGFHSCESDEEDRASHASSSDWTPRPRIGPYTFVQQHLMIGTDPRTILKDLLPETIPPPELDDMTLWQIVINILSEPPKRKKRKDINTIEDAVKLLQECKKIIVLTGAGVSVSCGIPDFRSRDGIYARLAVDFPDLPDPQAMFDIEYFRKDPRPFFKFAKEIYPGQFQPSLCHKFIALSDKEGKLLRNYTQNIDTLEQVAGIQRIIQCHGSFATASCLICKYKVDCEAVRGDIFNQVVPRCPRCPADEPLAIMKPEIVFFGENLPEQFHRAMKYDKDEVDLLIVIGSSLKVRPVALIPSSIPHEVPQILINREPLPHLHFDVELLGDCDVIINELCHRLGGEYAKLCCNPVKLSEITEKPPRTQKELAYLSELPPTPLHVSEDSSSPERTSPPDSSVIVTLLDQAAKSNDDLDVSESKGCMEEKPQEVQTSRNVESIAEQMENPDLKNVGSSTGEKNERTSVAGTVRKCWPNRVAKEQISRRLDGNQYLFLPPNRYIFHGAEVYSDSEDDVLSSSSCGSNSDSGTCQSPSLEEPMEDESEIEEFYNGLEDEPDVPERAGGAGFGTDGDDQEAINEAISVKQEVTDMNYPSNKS

Homo sapiens [2] = species: Homo sapiens; assay: Selectivity ratio of IC50 for recombinant human His6-tagged SIRT3 to IC50 for recombinant human GST or His6-tagged SIRT1
Homo sapiens [3] = species: Homo sapiens; assay: Selectivity ratio of IC50 for recombinant human His6-tagged SIRT3 to IC50 for recombinant human His6-tagged SIRT2
[4] = target: T2, NAD-dependent protein deacetylase sirtuin-3, mitochondrial (Homo sapiens, UniProt Q9NTG7); assay: Inhibition of recombinant human His6-tagged SIRT3 using H2N-HK-[Nepsilon-acetyl-lysine]-LM-COOH as substrate incubated for 10 mins in presence of beta-NAD+ by HPLC based assay
T2 sequence (Q9NTG7 whole entry): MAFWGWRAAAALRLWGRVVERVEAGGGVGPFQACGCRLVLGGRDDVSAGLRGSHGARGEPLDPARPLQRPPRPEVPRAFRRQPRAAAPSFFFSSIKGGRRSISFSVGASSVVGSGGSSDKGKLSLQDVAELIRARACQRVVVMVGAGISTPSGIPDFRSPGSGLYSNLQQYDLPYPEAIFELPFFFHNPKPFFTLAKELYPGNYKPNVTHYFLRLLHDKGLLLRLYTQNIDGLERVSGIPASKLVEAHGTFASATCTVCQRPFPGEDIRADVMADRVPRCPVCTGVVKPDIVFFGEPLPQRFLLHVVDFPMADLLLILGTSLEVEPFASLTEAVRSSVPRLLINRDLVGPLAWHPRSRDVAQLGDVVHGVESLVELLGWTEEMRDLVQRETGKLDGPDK

[5] = target: T3, NAD-dependent protein deacetylase sirtuin-2 (Homo sapiens, UniProt Q8IXJ6); assay: Inhibition of recombinant human His6-tagged SIRT2 using H2N-HK-[Nepsilon-acetyl-lysine]-LM-COOH as substrate incubated for 12 mins in presence of beta-NAD+ by HPLC based assay
T3 sequence (Q8IXJ6 whole entry): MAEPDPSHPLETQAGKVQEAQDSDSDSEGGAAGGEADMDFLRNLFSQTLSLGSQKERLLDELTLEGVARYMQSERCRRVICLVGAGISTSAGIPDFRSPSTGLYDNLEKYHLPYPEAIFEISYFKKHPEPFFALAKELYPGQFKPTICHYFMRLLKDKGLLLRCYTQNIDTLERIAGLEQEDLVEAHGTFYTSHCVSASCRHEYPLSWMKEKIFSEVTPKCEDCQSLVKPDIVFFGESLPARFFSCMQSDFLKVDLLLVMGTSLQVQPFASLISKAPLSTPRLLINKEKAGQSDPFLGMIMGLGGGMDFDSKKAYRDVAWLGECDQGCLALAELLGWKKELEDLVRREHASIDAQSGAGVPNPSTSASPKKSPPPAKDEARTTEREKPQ

[6] = target: NAD-dependent protein deacylase sirtuin-5, mitochondrial (Homo sapiens, UniProt Q9NXA8); assay: Inhibition of recombinant human GST-tagged SIRT5 using CH3CONH-AR-[Nepsilon-succinyl-lysine]-ST-CONH2 as substrate incubated for 5 mins in presence of beta-NAD+ by HPLC based assay
NAD-dependent protein deacylase sirtuin-5, mitochondrial, sequence (Q9NXA8 whole entry): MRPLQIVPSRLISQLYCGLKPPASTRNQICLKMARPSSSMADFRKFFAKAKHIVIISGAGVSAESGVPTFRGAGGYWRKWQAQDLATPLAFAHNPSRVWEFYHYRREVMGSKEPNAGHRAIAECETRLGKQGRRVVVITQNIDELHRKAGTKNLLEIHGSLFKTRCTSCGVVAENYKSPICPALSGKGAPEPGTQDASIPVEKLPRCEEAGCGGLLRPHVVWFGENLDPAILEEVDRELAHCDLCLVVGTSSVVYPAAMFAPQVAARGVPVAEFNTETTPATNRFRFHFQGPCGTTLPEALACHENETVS

[7] = Stability of compound assessed as Streptomyces griseus pronase-mediated compound hydrolysis up to 60 mins by HPLC analysis; type: ADME; details: 1 h
[8] = target: NAD-dependent protein deacylase sirtuin-6 (Homo sapiens, UniProt Q8N6T7); assay: Inhibition of recombinant human His6-tagged SIRT6 using H2N-EALPK-[Nepsilon-myristoyl-lysine]-TGGPQ-CONH2 as substrate incubated for 12 mins in presence of beta-NAD+ by HPLC based assay
NAD-dependent protein deacylase sirtuin-6, sequence (Q8N6T7 whole entry): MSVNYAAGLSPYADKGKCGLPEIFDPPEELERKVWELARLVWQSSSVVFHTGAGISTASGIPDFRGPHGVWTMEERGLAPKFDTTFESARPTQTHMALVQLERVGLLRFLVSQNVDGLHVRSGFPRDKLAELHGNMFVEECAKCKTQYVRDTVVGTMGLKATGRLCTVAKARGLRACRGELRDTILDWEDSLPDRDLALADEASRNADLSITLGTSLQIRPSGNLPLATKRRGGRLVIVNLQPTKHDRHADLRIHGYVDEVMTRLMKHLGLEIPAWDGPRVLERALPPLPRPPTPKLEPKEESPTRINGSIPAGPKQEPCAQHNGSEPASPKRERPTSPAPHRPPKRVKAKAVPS

[9] = Stability of compound assessed as Streptomyces griseus pronase-mediated compound hydrolysis up to 40 mins by HPLC analysis; type: ADME
[10] = Stability of compound assessed as Streptomyces griseus pronase-mediated compound hydrolysis up to 6 mins by HPLC analysis; type: ADME; details: 0.1 h
[11] = target: T4, NAD-dependent protein deacetylase sirtuin-1 (Homo sapiens) (UniProt Q96EB6); assay: Inhibition of SIRT1 in human HCT116 cells assessed as increase in p53 acetylation at lysine-382 residue after 8 hrs by Western blot assay; type: cell-based; details: HCT-116
T4 sequence (whole entry): T1 sequence (Q96EB6 whole entry)

Row | Compound | pIC50 [1] | Ratio IC50 (Homo sapiens [2]) | Ratio IC50 (Homo sapiens [3]) | pIC50 [4] | pIC50 [5] | pIC50 [6] | Stability [7] | pIC50 [8] | Stability [9] | Stability [10] | inhibition [11]
1 | CC(=S)NCCCC[C@@H]1NC(=O)CNCCC(=O)NCCCC[C@@H](C(N)=O)NC1=O | 4.66 | 2.6 | 2.3 | 4.24 | 4.61 | – | – | – | – | – | –
2 | CCCC[C@@H]1NC(=O)CCCCCCC(=O)NC[C@@H](C(N)=O)NC(=O)[C@H](CCCCNC(C)=S)NC1=O | 6.35 | 2.4 | 5.9 | 5.97 | 6.74 | – | – | – | – | – | –
3 | CC(=S)NCCCC[C@@H]1NC(=O)[C@H](Cc2ccc3ccccc3c2)NC(=O)CCCCCCC(=O)NCC[C@@H](C(N)=O)NC1=O | 5.96 | – | – | – | 5.62 | < 2.22 | Stable | < 2.40 | – | – | –
4 | CCCC[C@@H]1NC(=O)CCCCCCC(=O)NCCCC[C@@H](C(N)=O)NC(=O)[C@H](CCCCNC(C)=S)NC1=O | 6.66 | 2.1 | 2 | 6.33 | 6.62 | – | – | – | – | – | –
5 | CC(=S)NCCCC[C@@H]1NC(=O)[C@H](Cc2csc3ccccc23)NC(=O)CCCCCCC(=O)NC[C@@H](C(N)=O)NC1=O | 5.92 | 2.1 | 0.6 | 5.60 | 5.37 | – | – | – | – | – | –
6 | CC(=S)NCCCC[C@@H]1NC(=O)[C@H](Cc2ccc3ccccc3c2)NC(=O)CCCCCCC(=O)NCCCC[C@@H](C(N)=O)NC1=O | 6.24 | 3.4 | 1.4 | 5.71 | 5.85 | – | – | – | – | – | –
7 | CN(C)CCCCC(=O)Nc1ccc(NC(=S)NC(=O)c2ccc(C(C)(C)C)cc2)cc1 | – | – | – | 4.59 | – | – | – | – | – | – | –
8 | CC(=S)NCCCC[C@@H]1NC(=O)[C@H](Cc2ccc3ccccc3c2)NC(=O)CCCCCCC(=O)NC[C@@H](C(N)=O)NC1=O | 6.15 | 4.9 | 2.3 | 5.46 | 5.82 | – | – | – | – | – | –
9 | CC(=S)NCCCC[C@@H]1NC(=O)[C@H](Cc2csc3ccccc23)NC(=O)CCCCCCC(=O)NCCCC[C@@H](C(N)=O)NC1=O | 6.30 | 7.6 | 4.3 | 5.42 | 6.05 | < 3.70 | – | < 3.00 | Stable | – | –
10 | CC(=S)NCCCC[C@@H]1NC(=O)[C@H](Cc2ccc3ccccc3c2)NC(=O)CCCCCCC(=O)NCCC[C@@H](C(N)=O)NC1=O | 6.74 | 17.8 | 2.7 | 5.49 | 5.92 | – | – | – | – | – | –
11 | CC(=S)NCCCC[C@@H]1NC(=O)CNC(=O)CCCCCCC(=O)NCCCC[C@@H](C(N)=O)NC1=O | 5.42 | 0.9 | 0.9 | 5.47 | 5.41 | – | – | – | – | – | –
12 | CCCC[C@@H]1NC(=O)CCCCCCC(=O)NCC[C@@H](C(N)=O)NC(=O)[C@H](CCCCNC(C)=S)NC1=O | 6.09 | 1.8 | 3.5 | 5.83 | 6.38 | – | – | – | – | – | –
13 | H-HKK(Ac)LM-OH | – | – | – | – | – | – | – | – | – | Unstable | –
14 | CCCC[C@@H]1NC(=O)CCCCCCC(=O)NCCC[C@@H](C(N)=O)NC(=O)[C@H](CCCCNC(C)=S)NC1=O | 6.57 | – | – | 5.74 | 6.66 | – | Stable | – | – | – | Dose-dependent effect
15 | CC(=S)NCCCC[C@@H]1NC(=O)[C@H](Cc2csc3ccccc23)NC(=O)CCCCCCC(=O)NCCC[C@@H](C(N)=O)NC1=O | 6.17 | 4.7 | 6.6 | 5.50 | 6.32 | < 3.52 | – | < 2.70 | – | – | –
16 | CC(C(=O)Nc1cccc(/N=C/c2c(O)ccc3ccccc23)c1)c1ccccc1 (stereo unspecified) [SALERMIDE] | 4.43 | – | – | – | 4.69 | – | – | – | – | – | –
17 | CC(=S)NCCCC[C@@H]1NC(=O)[C@H](Cc2csc3ccccc23)NC(=O)CCCCCCC(=O)NCC[C@@H](C(N)=O)NC1=O | 5.90 | 7.9 | 8.6 | 5.00 | 5.94 | < 2.70 | – | < 3.00 | – | – | –

— ChEMBL document CHEMBL3860093, “Cyclic peptide-based potent and selective SIRT1/2 dual inhibitors harboring Nε-thioacetyl-lysine” (Bioorg Med Chem Lett, 2016)
